From US20240182333A1, “METHODS OF TREATING COMPOUNDS USING VISIBLE LIGHT-ENABLED ACTIVATION OF PEROXYDISULFATE” (THE TEXAS A&M UNIVERSITY SYSTEM, priority 2022, published 2024)

Tests used:
[1] = Decay of PDS in dark and under visible light; type: physicochemical; settings: for PDS decayed: within 240 min, regardless of the phosphate
Procedure: (§1) USA) 10 cm away from the lamp. The tubes in the dark treatments were covered with aluminum foil. To further confirm the PDS activation by visible light, experiments were also conducted with a UV filter film covering the simulated sunlight lamp to eliminate the effect of UV light. 1.0 mL of sample was withdrawn from each tube at different elapsed times (t=0, 1, 2, 3, 4, 5, 10, 20, 30, 60, 90, 120, and 240 min) and immediately quenched by 20 μL of 5.0 M sodium thiosulfate. The concentrations of all compositions in collected samples were measured with a Dionex UltiMate 3000 high-performance liquid chromatograph (HPLC) (Sunnyvale, USA). The settings of HPLC are provided in Example 1. The change in the concentration of PDS under different conditions was determined spectrophotometrically via an oxidation decolorization method and a modified iodometric titration method, respectively. The initial and final pH in each tube were measured with an Accumet AE150 pH meter (Westford, USA).
In order to verify whether PDS was directly activated by visible light, the impacts of solution constituents were examined. Because 10 mM phosphate buffer was added to control the initial pH to 7.0 to take into account of the typical pH of natural waters, the impact of phosphate buffer on the decay of PDS was investigated. […] Approximately 20% and 90% of PDS decayed within 240 min in dark and under visible light, respectively, regardless of the phosphate.

[2] = Quenching, anoxic and D2O experiments of ATZ degradation by PDS; type: physicochemical
Procedure: In order to identify the main reactive species involved in the degradation of ATZ by PDS under light and in dark, four quenchers were added in the beginning of the reactions to scavenge possible reactive species. The concentration of MeOH, tert-butanol (TBA), and L-histidine (L-his) was 0.5 M, and the concentration of superoxide dismutase (SOD) was 50 U·ml^−1. To analyze the impact of oxygen, purified N2 gas was used to purge the system for 10 min before the quenching experiments. All tubes were capped and then sealed with parafilm to maintain an anoxic environment throughout the reaction. The ATZ concentrations in the samples taken at various time points (t=0, 5, 10, 30, 60, 120, and 240 min) were measured using HPLC. The degradation of ATZ was also repeated with D2O as the solvent for phosphate buffer with the same experimental setups.

[3] = Degradation of compounds by PDS in dark and under visible light (HPLC); type: physicochemical; settings: for pseudo-first-order rate constant kobs of ATZ degradation: [ATZ]0=10.0 μM, [PDS]0=5.0 mM, pH0=7.0, 25° C.
Procedure: Various reactions were carried out in 40 mL glass tubes with constant stirring at 300 rpm at 25±0.5° C. The temperature of solutions was monitored using a thermometer throughout the experiments. The initial concentration of atrazine (ATZ) was 10.0 uM, and the initial concentration of PDS was 5.0 mM. The irradiation fluxes emitted from the lamp and received by the solutions were measured with a LS125 UV light meter (Linshang Technology, Shenzhen, China) and a Solar Light PMA2100 radiometer (Solar Light Company, Philadelphia,
as §1
A simulated sunlight lamp was used as the light source in the instant example. The light fluxes that reaction solutions received in glass vials contained 39.8±0.5×10^−3 W/cm^2 of visible light in the wavelength (λ) range of 400-700 nm. The fluxes in the UV ranges contained 8.1±0.2×10^−6 W/cm^2 of UV-A (λ=315-400 nm) and 2.5±0.4×10^−6 W/cm^2 of UV-B (λ=280-315 nm), respectively. The UV-C flux (λ=230-280 nm) was negligible. Based on the flux measurement, UV light only accounted for <0.03% of the total light flux, and thus the light source utilized herein represents almost exclusively the visible light. The chemistry of PDS with visible light irradiation (PDS Light) and without (PDS Dark) was explored using six common herbicides and pharmaceuticals, namely atrazine (ATZ), sulfamethoxazole (SMX), trimethoprim (TMP), sulfadimethoxine (SDM), ibuprofen (IBP), and carbamazepine (CMZ) (FIGS. 1A-1F).

[4] = reported; cited from earlier work

Row | Structure (SMILES) | rate constant for R1 (photolysis of PDS by light) ([1]; based on the rate constant of PDS decay in dark and under light) | PDS decayed ([1]; in dark) | PDS decayed ([1]; under visible light) [%] | ATZ degradation by PDS Light in presence of L-his ([2]; L-his 0.5 M) | effect of D2O on rate constant of ATZ degradation ([2]; PDS Dark) | pseudo-first-order rate constant for ATZ degradation in D2O relative to water ([2]; PDS Light) | pseudo-first-order rate constant kobs of ATZ degradation ([2]; PDS Light, anoxic condition (N2 purging), without scavengers) | ATZ degradation by PDS Light in presence of scavengers ([2]; all four scavengers (MeOH, TBA, L-his 0.5 M; SOD 50 U·ml^−1)) | ATZ degraded ([3]; PDS Dark, within 30 min) [%] | pseudo-first-order rate constant kobs of ATZ degradation ([3]; PDS Dark) | pseudo-first-order rate constants of ATZ degradation with UV filter versus without UV filter ([3]; PDS Light, UV filter film between lamp and vials) | degradation of ATZ ([3]; PDS Light, in 30 min) | pseudo-first-order rate constant kobs of ATZ degradation ([3]; PDS Light, oxic) | k(SO4^●−/ATZ) [4]
1 | O=S(=O)([O-])OOS(=O)(=O)[O-].[K+].[K+] [PDS, Potassium peroxydisulfate] | around 8.8±1.1×10^−3 min^−1 | Approximately 20% | ~90 |  |  |  |  |  |  |  |  |  |  | 
2 | CCNc1nc(Cl)nc(NC(C)C)n1 [ATZ, 2-chloro-4-ethylamino-6-isopropylamino-s-triazine] |  |  |  | almost completely inhibited | negligible | more than 2.5 times | 7.3±0.9×10^−2 min^−1 | significantly hindered | 37 | 0.72±0.09×10^−2 min^−1 | not statistically different | complete degradation | 11±3.0×10^−2 min^−1 | 2.6−4.2×10^9 M^−1·s^−1
